Patent publication US12522607B2, “Substituted pyrazolo[3,4-d]pyrimidines as wee-1 inhibitors” (WIGEN BIOMEDICINE TECHNOLOGY (SHANGHAI) CO., LTD., priority 2020, dated 2026)

Key:
[1] = molecular target: T1, Wee-1 kinase (Homo sapiens, UniProt P30291); assay: Inhibitory activity against Wee-1 kinase (Lanthra Screen Wee-1 kinase kit, Tracer 178); format: binding; conditions: Wee-1 kinase 5 nM, Tracer 178 50 nM, 1 h room temperature
T1 construct: purchased Invitrogen
Method: Example 342. Assay for Inhibitory Activity of Compounds Against Wee-1 Kinase
The inhibitory activity of compounds against Wee-1 kinase was determined by using the Lanthra Screen Wee-1 kinase kit (Invitrogen). 5 μL of the compound diluted in a gradient with DMSO, 5 μL. of Wee-1 kinase (at a final concentration of 5 nM), 5 μL of an Eu-Anti-GST antibody (at a final concentration of 2 nM) mixture and 5 μL of kinase Tracer 178 (at a final concentration of 50 nM) were mixed well. The plate was read after incubation at room temperature for one hour. For comparison with the DMSO solvent control group, IC50 for the inhibition activity of the compounds against Wee-1 kinase was calculated.

[2] = test system: HT29 cells; assay: Antiproliferative activity against HT29 cells (Cell Titer-Lumi, ATP content); format: cell-based; conditions: Homo sapiens, HT-29, 72 after compound addition, read-out: HT-29 cells Anti-proliferative activity (IC50 for the inhibition against HT-29 cell growth)
Method: Example 343. Assay for Antiproliferative Activity Against HT29 Cells
3000 HT29 cells were seed in a 384-well plate (Fisher 142762). After the cells adhered to the wall overnight, the compounds diluted in a gradient were added. 72 later, Cell Titer-Lumi (Beyotime C0068XL) was added to determine the content of ATP in the cells. The growth of the cells was evaluated, and the IC50 for the inhibition of the compounds against cell growth was calculated.

T1 sequence (P30291 whole entry): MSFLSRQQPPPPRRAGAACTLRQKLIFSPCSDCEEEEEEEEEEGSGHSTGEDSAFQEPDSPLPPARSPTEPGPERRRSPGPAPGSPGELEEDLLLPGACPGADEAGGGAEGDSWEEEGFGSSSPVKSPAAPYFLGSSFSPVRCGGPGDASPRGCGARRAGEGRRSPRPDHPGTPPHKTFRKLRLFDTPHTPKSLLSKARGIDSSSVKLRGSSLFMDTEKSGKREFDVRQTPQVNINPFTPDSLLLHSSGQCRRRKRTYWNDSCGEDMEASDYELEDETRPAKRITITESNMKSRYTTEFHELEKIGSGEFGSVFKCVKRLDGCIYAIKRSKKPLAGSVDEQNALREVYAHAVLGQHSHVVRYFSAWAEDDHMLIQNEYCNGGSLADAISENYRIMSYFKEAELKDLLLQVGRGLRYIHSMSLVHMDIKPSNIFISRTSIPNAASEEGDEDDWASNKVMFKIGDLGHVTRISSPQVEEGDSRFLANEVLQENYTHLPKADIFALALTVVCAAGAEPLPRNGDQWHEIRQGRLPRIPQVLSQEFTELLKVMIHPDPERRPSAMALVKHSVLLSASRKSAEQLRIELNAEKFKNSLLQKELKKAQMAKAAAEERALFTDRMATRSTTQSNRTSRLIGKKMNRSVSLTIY

| SMILES | IC50 [1] [nM] | IC50 [2] [nM] |
| --- | --- | --- |
| C=CCn1c(=O)c2cnc(Nc3ccc(N4CCN(C)CC4)c(F)c3)nc2n1-c1ccc(=O)n(C(C)C)n1 [Compound 44] | ≤ 30 | ≤ 1000 |
| C=CCn1c(=O)c2cnc(Nc3ccc(N4CCNCC4)c(Cl)c3)nc2n1-c1ccc(=O)n(C(C)C)c1 [Compound 45] | ≤ 30 | ≤ 1000 |
| C=CCn1c(=O)c2cnc(Nc3ccc(N4CCN(C)CC4)c(Cl)c3)nc2n1-c1ccc(=O)n(C(C)C)c1 [Compound 46] | ≤ 30 | ≤ 1000 |
| C=CCn1c(=O)c2cnc(Nc3ccc(N4CCNCC4)c(OC)c3)nc2n1-c1ccc(=O)n(C(C)C)c1 [Compound 47] | ≤ 30 | ≤ 1000 |
| C=CCn1c(=O)c2cnc(Nc3ccc(N4CCN(C)CC4)c(OC)c3)nc2n1-c1ccc(=O)n(C(C)C)c1 [Compound 48] | ≤ 30 | ≤ 1000 |
| C=CCn1c(=O)c2cnc(Nc3ccc(N4CCNCC4)c(C(F)(F)F)c3)nc2n1-c1ccc(=O)n(C(C)C)c1 [Compound 49] | ≤ 30 | ≤ 1000 |
| C=CCn1c(=O)c2cnc(Nc3ccc(N4CCN(C)CC4)c(C(F)(F)F)c3)nc2n1-c1ccc(=O)n(C(C)C)c1 [Compound 50] | ≤ 30 | ≤ 1000 |
| C=CCn1c(=O)c2cnc(Nc3ccc(N4CCNCC4)c(CO)c3)nc2n1-c1ccc(=O)n(C(C)C)c1 [Compound 51] | 30 to 100 | 1000 to 3000 |
| C=CCn1c(=O)c2cnc(Nc3ccc(N4CCN(C)CC4)c(CO)c3)nc2n1-c1ccc(=O)n(C(C)C)n1 [Compound 52] | ≤ 30 | 1000 to 3000 |
| C=CCn1c(=O)c2cnc(Nc3ccc(N4CCNCC4)c(CC(F)(F)F)c3)nc2n1-c1ccc(=O)n(C(C)C)n1 [Compound 53] | ≤ 30 | ≤ 1000 |
| C=CCn1c(=O)c2cnc(Nc3ccc(N4CCN(C)CC4)c(CC(F)(F)F)c3)nc2n1-c1ccc(=O)n(C(C)C)n1 [Compound 54] | ≤ 30 | ≤ 1000 |
| C=CCn1c(=O)c2cnc(Nc3cc(C)c(N4CCNCC4)c(F)c3)nc2n1-c1ccc(=O)n(C(C)C)n1 [Compound 55] | ≤ 30 | ≤ 1000 |
| C=CCn1c(=O)c2cnc(Nc3cc(C)c(N4CCN(C)CC4)c(F)c3)nc2n1-c1ccc(=O)n(C(C)C)n1 [Compound 56] | ≤ 30 | ≤ 1000 |
| C=CCn1c(=O)c2cnc(Nc3cc(C)c(N4CCNCC4)c(Cl)c3)nc2n1-c1ccc(=O)n(C(C)C)n1 [Compound 57] | ≤ 30 | ≤ 1000 |
| C=CCn1c(=O)c2cnc(Nc3cc(C)c(N4CCN(C)CC4)c(Cl)c3)nc2n1-c1ccc(=O)n(C(C)C)n1 [Compound 58] | ≤ 30 | ≤ 1000 |
| C=CCn1c(=O)c2cnc(Nc3cc(F)c(N4CCNCC4)c(Cl)c3)nc2n1-c1ccc(=O)n(C(C)C)n1 [Compound 59] | ≤ 30 | ≤ 1000 |
| C=CCn1c(=O)c2cnc(Nc3cc(F)c(N4CCN(C)CC4)c(Cl)c3)nc2n1-c1ccc(=O)n(C(C)C)n1 [Compound 60] | ≤ 30 | ≤ 1000 |
| C=CCn1c(=O)c2cnc(Nc3cc(Cl)c(N4CCNCC4)c(Cl)c3)nc2n1-c1ccc(=O)n(C(C)C)n1 [Compound 61] | ≤ 30 | ≤ 1000 |
| C=CCn1c(=O)c2cnc(Nc3cc(Cl)c(N4CCN(C)CC4)c(Cl)c3)nc2n1-c1ccc(=O)n(C(C)C)n1 [Compound 62] | ≤ 30 | ≤ 1000 |
| C=CCn1c(=O)c2cnc(Nc3cc(F)c(N4CCNCC4)c(OC)c3)nc2n1-c1ccc(=O)n(C(C)C)n1 [Compound 63] | ≤ 30 | ≤ 1000 |
| C=CCn1c(=O)c2cnc(Nc3cc(F)c(N4CCN(C)CC4)c(OC)c3)nc2n1-c1ccc(=O)n(C(C)C)n1 [Compound 64] | ≤ 30 | ≤ 1000 |
| C=CCn1c(=O)c2cnc(Nc3cc(Cl)c(N4CCNCC4)c(OC)c3)nc2n1-c1ccc(=O)n(C(C)C)n1 [Compound 65] | ≤ 30 | ≤ 1000 |
| C=CCn1c(=O)c2cnc(Nc3cc(Cl)c(N4CCN(C)CC4)c(OC)c3)nc2n1-c1ccc(=O)n(C(C)C)n1 [Compound 66] | ≤ 30 | ≤ 1000 |
| C=CCn1c(=O)c2cnc(Nc3cccc(N4CCNCC4)c3)nc2n1-c1ccc(=O)n(C(C)C)n1 [Compound 67] | ≤ 30 | ≤ 1000 |
| C=CCn1c(=O)c2cnc(Nc3cccc(N4CCN(C)CC4)c3)nc2n1-c1ccc(=O)n(C(C)C)n1 [Compound 68] | ≤ 30 | ≤ 1000 |
| C=CCn1c(=O)c2cnc(Nc3cc(C)cc(N4CCNCC4)c3)nc2n1-c1ccc(=O)n(C(C)C)n1 [Compound 69] | ≤ 30 | ≤ 1000 |

| SMILES | IC50 [1] [nM] | IC50 [2] [nM] |
| --- | --- | --- |
| C=CCn1c(=O)c2cnc(Nc3cc(C)cc(N4CCN(C)CC4)c3)nc2n1-c1ccc(=O)n(C(C)C)n1 [Compound 70] | ≤ 30 | ≤ 1000 |
| C=CCn1c(=O)c2cnc(Nc3cc(F)cc(N4CCNCC4)c3)nc2n1-c1ccc(=O)n(C(C)C)n1 [Compound 71] | ≤ 30 | ≤ 1000 |
| C=CCn1c(=O)c2cnc(Nc3cc(F)cc(N4CCN(C)CC4)c3)nc2n1-c1ccc(=O)n(C(C)C)n1 [Compound 72] | ≤ 30 | ≤ 1000 |
| C=CCn1c(=O)c2cnc(Nc3cc(Cl)cc(N4CCNCC4)c3)nc2n1-c1ccc(=O)n(C(C)C)n1 [Compound 73] | ≤ 30 | ≤ 1000 |
| C=CCn1c(=O)c2cnc(Nc3cc(Cl)cc(N4CCN(C)CC4)c3)nc2n1-c1ccc(=O)n(C(C)C)n1 [Compound 74] | ≤ 30 | ≤ 1000 |
| C=CCn1c(=O)c2cnc(Nc3cc(OC)cc(N4CCNCC4)c3)nc2n1-c1ccc(=O)n(C(C)C)n1 [Compound 76] | ≤ 30 | ≤ 1000 |
| C=CCn1c(=O)c2cnc(Nc3ccc(N4CC(N(C)C)C4)cc3)nc2n1-c1ccc(=O)n(C(C)C)n1 [Compound 77] | ≤ 30 | ≤ 1000 |
| C=CCn1c(=O)c2cnc(Nc3ccc(N4CC(N(C)C)C4)c(C)c3)nc2n1-c1ccc(=O)n(C(C)C)n1 [Compound 78] | ≤ 30 | ≤ 1000 |
| C=CCn1c(=O)c2cnc(Nc3ccc(N4CC(N(C)C)C4)c(OC)c3)nc2n1-c1ccc(=O)n(C(C)C)n1 [Compound 79] | ≤ 30 | ≤ 1000 |
| C=CCn1c(=O)c2cnc(Nc3ccc(N4CC(N5CCC5)C4)cc3)nc2n1-c1ccc(=O)n(C(C)C)n1 [Compound 80] | ≤ 30 | 1000 to 3000 |
| C=CCn1c(=O)c2cnc(Nc3ccc(N4CC(N5CCC5)C4)c(C)c3)nc2n1-c1ccc(=O)n(C(C)C)n1 [Compound 81] | ≤ 30 | ≤ 1000 |
| C=CCn1c(=O)c2cnc(Nc3ccc(N4CC(N5CCC5)C4)c(OC)c3)nc2n1-c1ccc(=O)n(C(C)C)n1 [Compound 82] | ≤ 30 | ≤ 1000 |
| C=CCn1c(=O)c2cnc(Nc3ccc(N4CC(N5CCCC5)C4)cc3)nc2n1-c1ccc(=O)n(C(C)C)n1 [Compound 83] | ≤ 30 | ≤ 1000 |
| C=CCn1c(=O)c2cnc(Nc3ccc(N4CC(N5CCCC5)C4)c(C)c3)nc2n1-c1ccc(=O)n(C(C)C)n1 [Compound 84] | ≤ 30 | ≤ 1000 |
| C=CCn1c(=O)c2cnc(Nc3ccc(N4CC(N5CCCC5)C4)c(OC)c3)nc2n1-c1ccc(=O)n(C(C)C)n1 [Compound 85] | ≤ 30 | ≤ 1000 |
| C=CCn1c(=O)c2cnc(Nc3ccc(N4CCC(N5CCC5)CC4)cc3)nc2n1-c1ccc(=O)n(C(C)C)n1 [Compound 86] | ≤ 30 | ≤ 1000 |
| C=CCn1c(=O)c2cnc(Nc3ccc(N4CCC(N5CCC5)CC4)c(C)c3)nc2n1-c1ccc(=O)n(C(C)C)n1 [Compound 87] | ≤ 30 | ≤ 1000 |
| C=CCn1c(=O)c2cnc(Nc3ccc(N4CCC(N5CCC5)CC4)c(OC)c3)nc2n1-c1ccc(=O)n(C(C)C)n1 [Compound 88] | ≤ 30 | ≤ 1000 |
| C=CCn1c(=O)c2cnc(Nc3ccc(N4CCC(N5CCCC5)CC4)cc3)nc2n1-c1ccc(=O)n(C(C)C)n1 [Compound 89] | ≤ 30 | ≤ 1000 |
| C=CCn1c(=O)c2cnc(Nc3ccc(N4CCC(N5CCCC5)CC4)c(C)c3)nc2n1-c1ccc(=O)n(C(C)C)n1 [Compound 90] | ≤ 30 | ≤ 1000 |
| C=CCn1c(=O)c2cnc(Nc3ccc(N4CCC(N5CCCC5)CC4)c(OC)c3)nc2n1-c1ccc(=O)n(C(C)C)n1 [Compound 91] | ≤ 30 | ≤ 1000 |
| C=CCn1c(=O)c2cnc(Nc3ccc(N4CC[C@H](N(C)C)C4)cc3)nc2n1-c1ccc(=O)n(C(C)C)n1 [Compound 92] | ≤ 30 | ≤ 1000 |
| C=CCn1c(=O)c2cnc(Nc3ccc(N4CC[C@H](N(C)C)C4)c(C)c3)nc2n1-c1ccc(=O)n(C(C)C)n1 [Compound 93] | ≤ 30 | ≤ 1000 |
| C=CCn1c(=O)c2cnc(Nc3ccc(N4CC[C@H](N(C)C)C4)c(OC)c3)nc2n1-c1ccc(=O)n(C(C)C)n1 [Compound 94] | ≤ 30 | ≤ 1000 |
| C=CCn1c(=O)c2cnc(Nc3ccc(N4CC[C@@H](N(C)C)C4)cc3)nc2n1-c1ccc(=O)n(C(C)C)n1 [Compound 95] | ≤ 30 | ≤ 1000 |
| C=CCn1c(=O)c2cnc(Nc3ccc(N4CC[C@@H](N(C)C)C4)c(C)c3)nc2n1-c1ccc(=O)n(C(C)C)n1 [Compound 96] | ≤ 30 | ≤ 1000 |
